# Laboratory results: PMC10993414, “Water Quality Monitoring with the Multiplexed Assay MitoOxTox for Mitochondrial Toxicity, Oxidative Stress Response, and Cytotoxicity in AREc32 Cells” (Environmental Science & Technology, 2024)
# Like-named read-outs stand apart in the source and are kept apart here.
# What was measured:
# [1] = system: mitochondrial membrane potential (MMP) in AREc32 cells; settings: for SRcytotoxicity: human
# [2] = cited from earlier work
# [3] = system: mitochondrial membrane potential (MMP) in AREc32 cells; assay: Disruption of mitochondrial membrane potential (m-MPI red/green ratio), MitoOxTox; settings: for SRcytotoxicity: specificity ratio of MMP effect: IC10 (ImageXpress)/EC10 (eq 4)
# AREc32 cells [4] = assay: Cytotoxicity with ImageXpress high-content imaging, MitoOxTox
# AREc32 cells [5] = assay: Cytotoxicity (cell confluency) with IncuCyte S3 live cell imaging, MitoOxTox
# [6] = system: Nrf2-mediated oxidative stress response pathway (ARE) in AREc32 cells; assay: cells; settings: Arec32, 24 h, read-out: Oxidative stress response ECIR1.5 (M)
# AREc32 cells [7] = settings: for Cytotoxicity Incucyte IC10: human, 24 h
# AREc32 cells [8] = system: AREc32 cells
# [9] = logarithm of EC10, AREc32, 24 h exposure
# [10] = 10% reduction in cell viability, AREc32, 24 h exposure
# [11] = logarithm of IC10, AREc32, 24 h exposure, Corning plates
# [12] = 10% reduction of MMP, AREc32, 24 h exposure
Compound,EC (induction ratio 1.5) [6],Cytotoxicity ImageExpress IC10 (AREc32 cells [4]; [10]),Cytotoxicity ImageExpress log(IC10 (M)) (AREc32 cells [4]; [11]),Cytotoxicity Incucyte IC10 (AREc32 cells [5]; [10]),"MMP inhibition EC10 [3, 12]","MMP inhibition log(EC10 (M)) [3, 9]",SRcytotoxicity [3],"log Kow [L/L] ([2]; experimental, ref PhysPropNCCT)",other results
CCCCOCCO [2-Butoxyethanol],,,,,,,,,"MMP inhibition log(EC10 (M)) [1, 9]: -1.97 M; log Kow [L/L] ([2]; ref Vaes et al. 1997b): 0.83 L/L; EC10 ([3]; MMP, AREc32, 24 h): 10700 µM"
Cc1cc(O)ccc1Cl [4-Chloro-3-methylphenol],,,,,,,,,Cytotoxicity ImageExpress IC10 (AREc32 cells [4]): 161 µM; Cytotoxicity ImageExpress log(IC10 (M)) (AREc32 cells [4]): -3.79 M; Cytotoxicity Incucyte IC10 (AREc32 cells [5]): 111 µM; MMP inhibition EC10 [3]: 13.5 µM; MMP inhibition log(EC10 (M)) [3]: -4.87 M
CCCCCc1ccc(O)cc1 [4-Pentylphenol],> 0.000385 M,87.6 µM,-4.06 M,57.1 µM,6.16 µM,-5.21 M,14.2,,log Kow [L/L] ([2]; ref Vaes et al. 1997b): 4.24 L/L
CCCCCC[C@H]1C(=O)O[C@H](C)[C@H](NC(=O)c2cccc(NC=O)c2O)C(=O)O[C@@H](C)[C@@H]1OC(=O)CC(C)C [Antimycin A],> 0.000129 M,43.4 µM,-4.36 M,35.9 µM,0.000755 µM,-9.12 M,,,
COc1ccc2cc3[n+](cc2c1OC)CCc1cc2c(cc1-3)OCO2 [Berberine],> 0.000135 M,72.4 µM,-4.14 M,63.5 µM,0.0135 µM,-7.87 M,5365,,
N#CC(C#N)=NNc1cccc(Cl)c1 [Carbonyl cyanide 3-chlorophenyl-hydrazone],> 0.000355 M,2.31 µM,-5.64 M,1.28 µM,0.247 µM,-6.61 M,9.4,3.38 L/L,
N#CC(C#N)=NNc1ccc(OC(F)(F)F)cc1 [Carbonyl cyanide 4-(trifluoromethoxy)phenylhydrazone],> 6.32e-05 M,1.75 µM,-5.76 M,0.824 µM,0.0768 µM,-7.11 M,22.8,3.68 L/L,
Cc1ccc(-c2c(Cl)nc(C#N)n2S(=O)(=O)N(C)C)cc1 [Cyazofamid],> 5.41e-05 M,,,,36.7 µM,-4.44 M,,,"Cytotoxicity Incucyte log(IC10 (M)) (AREc32 cells [7]): no cytotoxicity; Cytotoxicity Incucyte IC10 (AREc32 cells [7]): > 54.1 µM; Cytotoxicity ImageExpress log(IC10 (M)) (AREc32 cells [8]): no cytotoxicity; Cytotoxicity ImageExpress IC10 (AREc32 cells [8]; human, 24 h): > 54.1 µM"
COc1cc2c(cc1OC)[C@@H]1C(=O)c3ccc4c(c3O[C@@H]1CO2)C=CC(C)(C)O4 [Deguelin],> 4.08e-05 M,28.8 µM,-4.54 M,17.7 µM,0.013 µM,-7.89 M,,,SRcytotoxicity [1]: 2215
CSC1=N[C@@](C)(c2ccccc2)C(=O)N1Nc1ccccc1 [Fenamidone],> 0.000239 M,,,,13.1 µM,-4.88 M,,,"Cytotoxicity Incucyte IC10 (AREc32 cells [7]): 118 µM; Cytotoxicity ImageExpress IC10 (AREc32 cells [8]; human, 24 h): 125 µM; Cytotoxicity ImageExpress log(IC10 (M)) (AREc32 cells [8]; human, 24 h): -3.90 M; SRcytotoxicity ([1]; 24 h): 9.5"
Cc1nn(C)c(Oc2ccccc2)c1C=NOCc1ccc(C(=O)OC(C)(C)C)cc1 [Fenpyroximate],,,,,0.00069 µM,-9.16 M,,,
CO/N=C(/C1=NOCCO1)c1ccccc1Oc1ncnc(Oc2ccccc2Cl)c1F [Fluoxastrobin],> 0.000153 M,> 153 µM,no cytotoxicity,52.1 µM,6.05 µM,-5.22 M,,,
CC1(C)CNC(=NN=C(/C=C/c2ccc(C(F)(F)F)cc2)/C=C/c2ccc(C(F)(F)F)cc2)NC1 [Hydramethylnon],> 4.04e-05 M,1.11 µM,-5.96 M,0.878 µM,4.29 µM,-5.37 M,,,
Cc1ccccc1C(=O)Nc1cccc(OC(C)C)c1 [Mepronil],> 0.000153 M,,,,31.2 µM,-4.51 M,,3.66 L/L,"Cytotoxicity Incucyte IC10 (AREc32 cells [7]): 58.7 µM; Cytotoxicity ImageExpress IC10 (AREc32 cells [8]; human, 24 h): 72.9 µM; Cytotoxicity ImageExpress log(IC10 (M)) (AREc32 cells [8]; human, 24 h): -4.14 M"
COC(=O)N(OC)c1ccccc1COc1ccn(-c2ccc(Cl)cc2)n1 [Pyraclostrobin],> 0.000103 M,61.4 µM,-4.21 M,82.4 µM,0.208 µM,-6.68 M,,3.99 L/L,SRcytotoxicity [1]: 295.0
CC(C)(C)c1ccc(CSc2cnn(C(C)(C)C)c(=O)c2Cl)cc1 [Pyridaben],> 0.000161 M,,,,0.00273 µM,-8.56 M,,6.37 L/L,"Cytotoxicity Incucyte IC10 (AREc32 cells [7]): 51.4 µM; Cytotoxicity ImageExpress log(IC10 (M)) (AREc32 cells [8]): no cytotoxicity; Cytotoxicity ImageExpress IC10 (AREc32 cells [8]; human, 24 h): > 161 µM"
CCOCCc1ccc(OCCN=c2[nH]cnc(CC)c2Cl)c(C)c1C [Pyrimidifen],> 0.000136 M,56.1 µM,-4.25 M,55.3 µM,0.00271 µM,-8.57 M,20693,,
CCc1nn(C)c(C(=O)NCc2ccc(C(C)(C)C)cc2)c1Cl [Tebufenpyrad],> 0.000214 M,192 µM,-3.72 M,157 µM,0.00573 µM,-8.24 M,,4.61 L/L,SRcytotoxicity [1]: 33496
Cc1nc(C(F)(F)F)c(C(=O)Nc2c(Br)cc(OC(F)(F)F)cc2Br)s1 [Thifluzamide],> 3.16e-05 M,23.4 µM,-4.63 M,11.3 µM,2.92 µM,-5.53 M,8.0,,
CON=C(C(=O)OC)c1ccccc1CON=C(C)c1cccc(C(F)(F)F)c1 [Trifloxystrobin],> 0.000123 M,,,,4.11 µM,-5.39 M,,4.50 L/L,"Cytotoxicity Incucyte log(IC10 (M)) (AREc32 cells [7]): no cytotoxicity; Cytotoxicity Incucyte IC10 (AREc32 cells [7]): > 123 µM; Cytotoxicity ImageExpress log(IC10 (M)) (AREc32 cells [8]): no cytotoxicity; Cytotoxicity ImageExpress IC10 (AREc32 cells [8]; human, 24 h): > 123 µM"
